Results from patent US20230173090A1, “COMPOSITIONS AND METHODS FOR MODULATING DOPAMINE RECEPTOR ACTIVITY” (The Regents of the University of California, priority 2020, published 2023).

Legend:
D1R = molecular target: T1, D1R (Homo sapiens, UniProt P21728); experiment: D1R-mediated GIRK channel activation assay in HEK293T cells (whole-cell electrophysiology); type: cell-based; details: % of photocurrent in the absence of LE300
T1 construct: expressed in transfected cells; host or cells: HEK293T (A1, A2); HEK293 (A26)
T1 sequence (P21728 whole entry): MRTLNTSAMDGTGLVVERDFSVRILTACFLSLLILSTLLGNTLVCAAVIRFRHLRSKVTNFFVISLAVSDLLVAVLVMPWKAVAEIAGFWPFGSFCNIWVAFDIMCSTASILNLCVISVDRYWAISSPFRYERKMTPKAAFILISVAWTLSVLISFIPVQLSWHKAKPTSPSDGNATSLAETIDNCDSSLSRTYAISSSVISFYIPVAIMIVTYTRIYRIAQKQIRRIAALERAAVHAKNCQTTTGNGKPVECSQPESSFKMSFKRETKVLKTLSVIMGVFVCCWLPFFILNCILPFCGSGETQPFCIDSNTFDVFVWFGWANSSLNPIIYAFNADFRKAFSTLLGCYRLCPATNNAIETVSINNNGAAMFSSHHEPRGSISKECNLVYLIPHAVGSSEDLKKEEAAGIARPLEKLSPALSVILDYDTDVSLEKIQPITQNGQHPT
Description: All constructs were cloned into mammalian expression vectors. For the receptor mediated-GIRK activation assay, HEK293T cells were seeded onto 18 mm coverslips and transiently transfected overnight with Lipofectamine 2000 and the following constructs: a receptor, a variant of the membrane-anchor (M; 0.7 µg), GIRK1(F137S) (0.7 µg), and tdTomato (0.2 µg). […] D1R, D5R, or opto-D1R were cotransfected with Gαis13 (0.35 µg), D3R with GαoA (0.7 µg), and M1R or mGluR1 with Gαiq5. Transfected cells were used for electrophysiology, imaging, or flow cytometry experiments.
HEK293T cells were sparsely seeded and maintained in DMEM (Invitrogen) with 10% fetal bovine serum on poly-L-lysine-coated coverslips at 37° C. and 5% CO2. HEK293T cells were voltage clamped in whole-cell configuration 16-48 hours after transfection. […] GluK2 electrophysiology was performed in the presence of 0.3 mg/mL concanavalin A to prevent desensitization. […] Cells were voltage clamped to -60 or -80 mV using an Axopatch 200A (Molecular Devices) amplifier.
For all experiments, compounds were applied using a gravity-driven perfusion system and illumination was applied to the entire field of view using a Polychrome V monochromator (TILL Photonics) through a 20x objective (maximum 0.05 mW/mm^2 at 370 nm and 0.5 mW/mm^2 at 460 nm or 473 nm) or a DG4 (Sutter) through a 20x objective (maximum 0.06 mW/mm^2 at 370 nm and 0.6 mW/mm^2 at 445 nm). pClamp software was used for both data acquisition and control of illumination.
The selection criteria for electrophysiological experiments are that a cell (i) expresses the fluorescent protein transfection marker, and (ii) responds to agonist, indicating the presence of either receptor and GIRK or an LGIC. Cells were not excluded unless the recording was of poor quality (e.g., unstable baseline).
Data were analyzed using GraphPad Prism (GraphPad), Clampfit (Axon instruments), Origin (OriginLab), MATLAB, or ImageJ software. For dose-response curves, data were normalized to vehicle (0%) and DA (100%) and nonlinear regression analysis was performed using the sigmoidal dose-response function in GraphPad Prism. Statistical analyses were performed using GraphPad Prism. All values reported are mean ± S.E.M.
FIGS. 9A-9H. Functional properties of untethered P-D1ago. (A) Schematic representation of a D1R-mediated G protein-coupled inwardly rectifying potassium (GIRK) channel assay in HEK293T cells. Agonist-induced receptor activation results in the recruitment of a heterotrimeric G protein containing the chimeric Gα subunit (Gαis) followed by the release of Gβγ, which activates GIRK channels and enhances inward-current. […] (E) Schematic representation of a highly sensitive D1R-mediated cAMP accumulation assay in HEK293T cells. Agonist-induced D1R activation results in Gs/olfrecruitment followed by the binding of its Gα subunit to adenylate cyclase (AC), which enhances the conversion of ATP to cAMP. cAMP binds the bioluminescence resonance energy transfer 1 (BRET′)-based cAMP sensor CAMYEL^87, resulting in a conformational change in its Epac domain that increases the distance and decreases BRET^1 between the donor Renilla luciferase (Rluc) and the acceptor YFP. […] Optimization and characterization of the D1R MP

D1R and D5R = experiment: Open field test, bilateral dStr-infusion of SKF82958 in D1-Cre mice; type: in vivo
Description: FIGS. 21A-21K. […] (A) An infusion of SKF82958 directly to the dorsal striatum (dStr) activates D1R and D5R in various cell types of this brain area and could diffuse into other brain areas. (B) Time course of the effect of a bilateral dStr-infusion of SKF82958 (400 nL per hemisphere) on the locomotion of D1-Cre mice in an open field. (C) Average velocity in the last 10 minutes of the open field test. one-way ANOVA, F = 14.3, Bonferroni, ^∗∗p < 0.01, ^∗∗∗p < 0.001. n = 5 mice per condition. (D) Time to maximum locomotion with SKF82958 or MP-D1ago. unpaired two-sided t-test, ^∗∗∗∗p < 0.0001. n = 5 for SKF82958, n = 7 mice for MP-D1ago. (E) Example movement dynamics of a mouse treated with vehicle or 100 µg SKF82958. Shown for SKF82958-treated mice is the (F) average percent of the time in motion, (G) average initiations per second, (H) average movement bout duration, and (I) the average maximum movement bout velocity. […] Bonferroni, ^∗p < 0.05, ^∗∗p < 0.01. n = 5 mice. (J) Representative coronal brain slice from a mouse infused with SKF82958. grey bar = 1 mm. blue = DAPI staining. (K) Summary of cannula locations for individual mice.

| photoactivation of D1R by P-D1ago tethered to the M in the presence of LE300 (D1R) | Compound | duration of the movement bouts (D1R and D5R) | movement initiation (D1R and D5R) | percentage of the time in motion (D1R and D5R) | locomotion in an open field (D1R and D5R; 400 nL per hemisphere) |
| --- | --- | --- | --- | --- | --- |
| 3.3 ± 3.3% | CN1CCc2ccccc2Cc2[nH]c3ccccc3c2CC1 [LE300, reference compound] | – | – | – | – |
| – | C=CCN1CCc2c(cc(O)c(O)c2Cl)C(c2ccccc2)C1 (centres unmarked) [SKF82958] | increased | increased | increased the percentage of the time that the mice were in motion | enhanced locomotion |
